In patent US20160109432A1, “METHODS AND MATERIALS FOR ASSESSING PLURIPOTENCY OF STEM CELL POPULATIONS” (Mayo Foundation for Medical Education and Research, priority 2014, published 2016):
pEC50: −log10 of the molar value.

Experiments:
[1] = system: human induced pluripotent stem cells; assay: Etoposide sensitivity assay (ESA), Annexin V/PI flow cytometry; format: cell-based; details: for pEC50: Homo sapiens, 24 h
Description: An assay for assessing pluripotency or for releasing a stem cell population for clinical diagnostic or therapeutic use can include obtaining a series of cell samples from the population being assessed. Each of these samples can be contacted with an increasing concentration of one or more DNA damaging agent(s). Any appropriate length of time can be used for the incubation period. For example, the cells can be incubated as 37° C. for between about 30 minutes and about 48 hours (e.g., between about 30 minutes and about 36 hours, between about 30 minutes and about 24 hours, or between about 1 hour and about 24 hours). After this contacting step, the cells can be evaluated using, for example, flow cytometry to determine how susceptible the cells are to apoptosis. In some cases, flow cytometry can be carried out as follows. Briefly, pluripotent stem cells can be seeded in plates (e.g., 24 well plates) and treated with etoposide (Sigma-Aldrich) or DMSO for a period of time (e.g., about 24 hours) at, for example, about 50% confluence. Media and cells can be stained with Annexin V FITC/PI and analyzed via flow cytometry (e.g., via a Gallios (Beckman Coulter) flow cytometer). Data analysis can be performed using Kaluza (Beckman Coulter) software and normalized by dividing the triplicate means (viable non-staining cells) by the corresponding DMSO control. Human pluripotent stem cell clones were assessed for etoposide sensitivity as follows. Mechanically processed hiPSC's were seeded onto a 24-well plate (1×60 mm dish: 1×24-well plate), maintained for 3-5 days, and subsequently treated with etoposide (1, 10, 50, 100, 250, 500, and 1,000 nM, all performed in triplicate wells) or vehicle control (DMSO) for 24 hours. Conditioned media was collected into appropriately labeled 12×75 mm flow tubes, and 200 μL of TryPLE was added to each well. Following a brief incubation at 37° C. (5-10 minutes), 1 mL of pre-warmed (37° C.) FAC's buffer (4 mM EDTA, 0.5% FBS, 1×DPBS pH 7.4 w/o Ca^2+, Mg^2+) was added to each well. The total well contents were transferred to their corresponding conditioned media tubes, and all tubes were spun down at 400×G for 5 minutes. Tubes were washed 1× with ice-cold Annexin Binding Buffer (ABB, 10 mM HEPES, 2.5 mM CaCl2, 140 mM NaCl, pH 7.4) and stained with Annexin-FITC (BD 556420, 5 μL in 100 μL total ABB per tube) for 30 minutes on ice while protected from light. All tubes were washed 1× in ABB, and the resulting cell pellets were resuspended in 400 μL of ABB supplemented with 1 μL of 1 mg/mL propidium iodide (Sigma-Aldrich, P4864). Samples were immediately assayed by flow cytometry (Gallios, Beckman Coulter), and data were subsequently analyzed for percent viability using Kaluza software (Beckman Coulter).

[2] = system: cardiomyocytes differentiated from hiPSC's; assay: Etoposide sensitivity assay during cardiomyocyte differentiation of hiPSC's; format: cell-based, human; details: mature, beating cardiomyocytes (Day 9)

pEC50 ([1]; cleaned (C) hiPSC cultures after removal of poor quality clones/cells, 24 hours): > 6.52 | pEC50 ([1]; poor quality clones/cells from unclean (UC) hiPSC cultures, feeder free): < 6.52
Structure (SMILES): COc1cc([C@@H]2c3cc4c(cc3[C@@H](O[C@@H]3O[C@@H]5CO[C@@H](C)O[C@H]5[C@H](O)[C@H]3O)[C@H]3COC(=O)[C@H]23)OCO4)cc(OC)c1O [etoposide]
etoposide sensitivity ([1]; Sendai virus derived hiPSC clones compared to lentivirus reprogrammed clones, 126 clones): significant decrease in etoposide sensitivity | etoposide sensitivity ([1]; hiPSC clones of poor quality and cellular differentiation, feeder free conditions): reduced or negligible etoposide sensitivity | sensitivity to etoposide ([1]; hiPSC lines RT 4.1 and RT 6.21 compared with other hiPSC lines, 24 hours): greatest sensitivity | sensitivity to etoposide [2]: near complete lack of sensitivity
